Measured values published in US7163960B2, “Treatment and prevention of inflammatory disorders” (Monsanto Technology L.L.C., priority 2002, dated 2007).
Entries after “also recorded” stand apart in the source; their conditions may differ. Marks after values point to notes of the source that are not given here.

Tests used:
Assay type in all cases: in vivo, human
[1] = Fatty acid analysis of blood cell phospholipids and plasma lipid fractions after ingestion of test fatty acids; conditions: for DHA (% of total fatty acids), Erythrocyte phospholipid / DHA (% of total fatty acids), Plasma phospholipid / DPA (% of total fatty acids), Erythrocyte phospholipid / DPA (% of total fatty acids), Plasma phospholipid / EPA (% of total fatty acids), Monocyte / EPA (% of total fatty acids), Plasma CE / EPA (% of total fatty acids), Plasma Phospholipid / EPA (% of total fatty acids), Plasma TG / EPA (% of total fatty acids), Platelet / EPA (% of total fatty acids), Red Blood: both, human, in vivo
Description: 45 males and post-menopausal female—19–65 years of age, normolipidemic, and with a body mass index (BMI) in the range 20 to 30, were recruited. Exclusion criteria included bleeding disorders, hypertension, inflammatory disorders, active gastrointestinal diseases, chronic use of low dose aspirin, consumption of restaurant or takeaway evening meals more than twice per week, use of dietary supplements rich in n-3 or n-6 fatty acids, habitual consumption of more than 1 fish meal per month, and plasma phospholipid EPA+DHA levels>7.9% of total fatty acids (level achieved in the study group was 4.9±1.0% of total fatty acids).
(§1) Following a 3-week run-in period, subjects ingested either ALA, SDA, EPA supplied as ethyl esters in capsules. Intakes were 0.75 g/day for 3 weeks followed by 1.5 g/day for the subsequent 3 weeks.
At each visit, 36 mL of blood was taken by venepuncture after an overnight fast. Blood was aliquoted into various tubes for the following procedures.
Blood (20 mL) was added to tubes containing 4 mL 4.5% EDTA in water and 4 mL—6% dextran in normal saline, pH 7.0. Erythrocytes were allowed to sediment under gravity at 37° C. for 30 min. The leucocyte-rich plasma was layered onto LYMPHOPREP, density 1.077 (Nycomed Pharma, Oslo) and centrifuged at 110 g for 10 min to separate leucocytes from the platelets, which were removed. The gradient was further centrifuged at 200 g for 20 min to separate the neutrophils from mononuclear cells, which were removed.
Samples were processed for fatty acid analysis as described in Mantzioris et al., Am. J. Clin. Nutr., 72:42–8 (2000). Plasma, washed platelet and mononuclear cell pellets were stored at −80° C. Erythrocyte pellets were treated fresh with chloroform:isopropanol (2:1) and the lipid extracts stored at 4° C. Plasma, platelet and mononuclear cell pellets were extracted with chloroform:methanol. The cellular and plasma lipid extracts were fractionated by thin-layer chromatography. For the cellular extracts, the phospholipid fraction was retained and for the plasma extracts, the phospholipid, cholesterol ester, and triglyceride fractions were retained. These were transesterified by methanolysis (1% H2SO4 in methanol at 70° C. for 3 h). Fatty acid methyl esters were separated and quantified with a HEWLETT-PACKARD 6890 gas chromatograph equipped with a 50 m capillary column coated with BPX-70 (0.25 μm film thickness; SGE Pty Ltd, Victoria, Australia) (see Mantzioris et al., supra). Fatty acid standards were obtained from NuChek Prep Inc. (Elysian, Minn.) and included stearidonic acid obtained from Sigma Aldrich Pty Ltd. (Castle Hill, NSW, Australia). All organic solvents contained butylated hydroxy anisole (0.005%) as an antioxidant.

IL-1β = IL-1β synthesis in LPS-treated whole blood; conditions: mean ± SD
Description: as §1
(§2) Blood (4 mL) was added to heparinised tubes, bacterial lipopolysaccharide (LPS) was added (200 ng/mL), and the mixture was incubated at 37° C., 5% CO2, for 24 h. Plasma was collected and assayed for prostaglandin E2 (PGE2) by radioimmunoassay (RIA), interleukin-1β (IL-1β) and tumor necrosis factor-α (TNF-α) by ELISA, as described in Mantzioris et al., supra.

TNF-α = TNF-α synthesis in LPS-treated whole blood; conditions: mean ± SD
Description: as §1, §2

prostaglandin E2 (PGE2) = assay: PGE2 synthesis in LPS-stimulated whole blood; conditions: for PGE2 synthesis in LPS-stimulated whole blood: mean ± SD
Description: as §1, §2

[2] = Week 3 (after 0.75 g/day for 3 weeks)
[3] = Week 6 (after 1.5 g/day for 3 weeks)
[4] = Week −3 (start of run-in, before dosing)

Question: Which “Effect on DPA concentration in the phospholipid fractions of erythrocytes and plasma” value ([1]; 0.75 g/day) does the source give for `CC/C=C\C/C=C\C/C=C\C/C=C\C/C=C\CCCC(=O)O` [EPA, eicosapentaenoic acid] here?
Answer: significantly increased

Question: And the “Effect on EPA concentration in the phospholipid fractions of erythrocytes and plasma” value ([1]; 0.75 g/day (weeks 0 to 3))?
Answer: significantly increased

Question: And the “Effect on DPA concentration in the phospholipid fractions of erythrocytes and plasma” value ([1]; 1.5 g/day)?
Answer: significantly increased; also recorded: elevated

Question: And the “Effect on EPA concentration in the phospholipid fractions of erythrocytes and plasma” value ([1]; 1.5 g/day (weeks 3 to 6))?
Answer: significantly increased; also recorded: elevated

Question: What about the “DHA (% of total fatty acids), Erythrocyte phospholipid” value ([1]; 0 week) of the same compound?
Answer: 4.62 ± 0.69^b % of total fatty acids

Question: And the “DHA (% of total fatty acids), Plasma phospholipid” value ([1]; 0 weeks)?
Answer: 3.75 ± 0.77^ab % of total fatty acids

Question: What about the “DPA (% of total fatty acids), Erythrocyte phospholipid” value ([1]; 0 weeks) of the same compound?
Answer: 2.81 ± 0.24^a % of total fatty acids

Question: And the “DPA (% of total fatty acids), Plasma phospholipid” value ([1]; 0 weeks)?
Answer: 1.34 ± 0.22^a % of total fatty acids

Question: What about the “EPA (% of total fatty acids), Monocyte” value ([1]; 0 weeks) of the same compound?
Answer: 0.52 (0.11)a % of total fatty acids

Question: What about the “EPA (% of total fatty acids), Plasma CE” value ([1]; 0 weeks) of the same compound?
Answer: 1.02 (0.20)a % of total fatty acids

Question: What about the “EPA (% of total fatty acids), Plasma Phospholipid” value ([1]; 0 weeks) of the same compound?
Answer: 1.04 (0.23)a % of total fatty acids

Question: And the “EPA (% of total fatty acids), Plasma TG” value ([1]; 0 weeks)?
Answer: 0.27 (0.09)a % of total fatty acids

Question: And the “EPA (% of total fatty acids), Platelet” value ([1]; 0 weeks)?
Answer: 0.45 (0.09)a % of total fatty acids

Question: And the “EPA (% of total fatty acids), Red Blood” value ([1]; 0 weeks)?
Answer: 0.81 (0.14)^a % of total fatty acids

Question: And the “EPA (% of total fatty acids), Monocyte” value ([1]; 3 weeks)?
Answer: 1.38 (0.35)b1 % of total fatty acids

Question: And the “EPA (% of total fatty acids), Plasma CE” value ([1]; 3 weeks)?
Answer: 2.95 (0.74)b1 % of total fatty acids

Question: And the “EPA (% of total fatty acids), Plasma Phospholipid” value ([1]; 3 weeks)?
Answer: 2.71 (0.71)b1 % of total fatty acids

Question: And the “EPA (% of total fatty acids), Plasma TG” value ([1]; 3 weeks)?
Answer: 0.73 (0.20)b1 % of total fatty acids

Question: What about the “EPA (% of total fatty acids), Platelet” value ([1]; 3 weeks) of the same compound?
Answer: 1.08 (0.26)b1 % of total fatty acids

Question: And the “EPA (% of total fatty acids), Red Blood” value ([1]; 3 weeks)?
Answer: 1.60 (0.31)^b1 % of total fatty acids

Question: What about the “EPA (% of total fatty acids), Monocyte” value ([1]; 6 weeks) of the same compound?
Answer: 2.25 (0.74)c1 % of total fatty acids

Question: And the “EPA (% of total fatty acids), Plasma CE” value ([1]; 6 weeks)?
Answer: 4.53 (1.31)c1 % of total fatty acids

Question: What about the “EPA (% of total fatty acids), Plasma Phospholipid” value ([1]; 6 weeks) of the same compound?
Answer: 4.48 (1.35)c1 % of total fatty acids

Question: And the “EPA (% of total fatty acids), Plasma TG” value ([1]; 6 weeks)?
Answer: 1.23 (0.47)c1 % of total fatty acids

Question: What about the “EPA (% of total fatty acids), Platelet” value ([1]; 6 weeks) of the same compound?
Answer: 1.68 (0.43)c1 % of total fatty acids

Question: What about the “EPA (% of total fatty acids), Red Blood” value ([1]; 6 weeks) of the same compound?
Answer: 2.56 (0.65)^c1 % of total fatty acids

Question: And the “DHA (% of total fatty acids), Erythrocyte phospholipid” value ([1]; -3 week)?
Answer: 5.02 ± 0.89^a1,2 % of total fatty acids

Question: What about the “DHA (% of total fatty acids), Plasma phospholipid” value ([1]; -3 weeks) of the same compound?
Answer: 3.97 ± 1.06^a % of total fatty acids

Question: And the “DPA (% of total fatty acids), Erythrocyte phospholipid” value ([1]; -3 weeks)?
Answer: 2.92 ± 0.45^a1,2 % of total fatty acids

Question: And the “DPA (% of total fatty acids), Plasma phospholipid” value ([1]; -3 weeks)?
Answer: 1.31 ± 0.29^a % of total fatty acids

Question: And the “EPA (% of total fatty acids), Monocyte” value ([1]; -3 weeks)?
Answer: 0.66 (0.32)^a % of total fatty acids

Question: And the “EPA (% of total fatty acids), Plasma CE” value ([1]; -3 weeks)?
Answer: 1.03 (0.34)^a % of total fatty acids

Question: And the “EPA (% of total fatty acids), Plasma Phospholipid” value ([1]; -3 weeks)?
Answer: 1.10 (0.40)^a % of total fatty acids

Question: And the “EPA (% of total fatty acids), Plasma TG” value ([1]; -3 weeks)?
Answer: 0.31 (0.15)^a % of total fatty acids

Question: And the “EPA (% of total fatty acids), Platelet” value ([1]; -3 weeks)?
Answer: 0.44 (0.12)^a % of total fatty acids

Question: And the “EPA (% of total fatty acids), Red Blood” value ([1]; -3 weeks)?
Answer: 0.85 (0.16)^a % of total fatty acids

Question: And the “Effect on tissue levels of DHA (FIG. 1)” value ([1]; erythrocytes and plasma phospholipids, 1.5 g/day)?
Answer: decreased

Question: What about the “Change in erythrocyte DHA” value ([1]; higher dose (1.5 g/day)) of the same compound?
Answer: slight, but statistically significant decrease

Question: And the “IL-1β synthesis in LPS-treated whole blood” value (“IL-1β synthesis” below) (IL-1β; Week 0 (baseline))?
Answer: 92.0 ± 25.4^a ng/mL

Question: What about the “IL-1β synthesis” value (IL-1β; [2]) of the same compound?
Answer: 75.3 ± 27.6^b ng/mL

Question: What about the “IL-1β synthesis” value (IL-1β; [3]) of the same compound?
Answer: 73.5 ± 16.4^b ng/mL

Question: What about the “IL-1β synthesis” value (IL-1β; [4]) of the same compound?
Answer: 93.1 ± 26.8^a1,b ng/mL

Question: And the “TNF-α synthesis in LPS-treated whole blood” value (“TNF-α synthesis” for short) (TNF-α; Week 0 (baseline))?
Answer: 38.9 ± 12.5^a ng/mL

Question: And the “TNF-α synthesis” value (TNF-α; [2])?
Answer: 32.0 ± 11.8^ab ng/mL

Question: What about the “TNF-α synthesis” value (TNF-α; [3]) of the same compound?
Answer: 27.6 ± 10.6^b ng/mL

Question: What about the “TNF-α synthesis” value (TNF-α; [4]) of the same compound?
Answer: 36.6 ± 16.53^a1,2 ng/mL

Question: What about the “PGE2 synthesis in LPS-stimulated whole blood” value (prostaglandin E2 (PGE2); Week 0 (baseline)) of the same compound?
Answer: 4.21 ± 1.59 ng/mL

Question: What about the “PGE2 synthesis in LPS-stimulated whole blood” value (prostaglandin E2 (PGE2); [2]) of the same compound?
Answer: 5.05 ± 2.16 ng/mL

Question: And the “PGE2 synthesis in LPS-stimulated whole blood” value (prostaglandin E2 (PGE2); [3])?
Answer: 4.46 ± 1.47 ng/mL

Question: And the “PGE2 synthesis in LPS-stimulated whole blood” value (prostaglandin E2 (PGE2); [4])?
Answer: 3.78 ± 1.95^1,2 ng/mL

Question: What about the “Effect on LPS-stimulated PGE2 synthesis” value (prostaglandin E2 (PGE2); overall, either dose) of the same compound?
Answer: no effect
